Experimental data: US20060014717A1, “Therapeutic compositions for use in prophylaxis or treatment of diarrheas” (priority 2002, published 2006)

Legend:
[1] = tested on: an ETEC and an EPEC strain; conditions: cited from earlier work
[2] = tested on: E. coli EIEC CCUG 38092; test: Chromatogram binding assay, binding specificities of type strains; set-up: species or system Escherichia coli; conditions: prolonged sub-culture, 4 μg per lane
Procedure: Culture Conditions and Labeling—The E. coli strains were cultured on Luria-agar with the addition of 10 μl ^35S-methionine (400 tici; Amersham Pharmacia Biotech, U.K.) at 37° C. for 12 h. The bacteria were harvested by scraping, washed three times with phosphate-buffered saline (PBS), pH 7.3, and thereafter resuspended in PBS (with or without 1% mannose (w/v)) to 1×10^8 CFU/ml. The specific activities of the suspensions were approximately 1 cpm per 100 bacteria.
Thin-Layer Chromatography—Thin-layer chromatography of glycosphingolipids was performed on glass- or aluminum-backed silica gel 60 HPTLC plates (Merck, Darmstadt, Germany), using chloroform/methanol/water 60:35:8 (by volume) as solvent system. Chemical detection was done with anisaldehyde (6).
(§1) Glycosphingolipid Binding Assays—Binding of ^35S-labeled bacteria to glycosphingolipids on thin-layer chromatograms was done as reported (7). Dried chromatograms were dipped for 1 min in diethylether/n-hexane (1:5, by volume) containing 0.5% (w/v) polyisobutylmethacrylate (Aldrich Chem. Comp. Inc., Milwaukee, Wis.). After drying, the chromatograms were soaked in PBS containing 2% bovine serum albumin (w/v), 0.1% NaN3 (w/v) and 0.1% Tween 20 (by volume) for 2 h at room temperature. The chromatograms were subsequentely covered with radiolabeled bacteria diluted in PBS (2-5×10^6 cpm/ml). Incubation was done for 2 h at room temperature, followed by repeated washings with PBS. The chromatograms were thereafter autoradiographed using XAR-5 X-ray films (Eastman Kodak, Rochester, N.Y.) for 12 h. Autoradiograms were replicated using a CCD camera (Dage-MTI, Inc., Michigan City, Ind.), and analysis of the images was performed using the public domain NIH Image program (developed at the U.S. National Institutes of Health, and available at http://rsb.info.nih.eov/nih-imaee/).
However, several wild type diarrheagenic E. coli strains bind to sialic acid (see e.g. FIG. 6 and FIG. 3). […]

[3] = tested on: H. hepaticus CCUG 33637; test: Binding of 35S-labeled Helicobacter species to glycosphingolipids on thin-layer chromatograms; set-up: species or system Helicobacter hepaticus; key: + denotes a significant darkening on the autoradiogram when 2 μg (or 40 μg in the case of the last sample) was applied to TLC plates; − denotes no binding; conditions: 2 μg (40 μg for the glycosphingolipid fraction) on TLC plates
Description: (§2) Gastric species examined in the present study included, Helicobacter mustelae ferret isolates from the National Collection of Type Cultures (NCTC) and the Culture Collection of the University of Gothenberg (CCUG), NCTC 12198/CCUG 25175 (equivalent strains from different sources tested), CCUG 23950 and CCUG 23951, Helicobacterfelis CCUG 28539 from a cat, in addition, H. pylori strains CCUG 17874, CCUG 17875 and a clinical isolate 119/95 were used. Enterohepatic helicobacters of animal origin were purchased from the CCUG including, Helicobacter canes CCUG 33835, Helicobacter bilis CCUG 38995, Helicobacter hepaticus CCUG 33637, and Helicobacterfennelliae (CCUG 18820).
(§3) Binding of Helicobacter spp. to glycosphingolipids, both acid and non-acidfractions. Glycosphingolipids were isolated by standard procedures (Karlsson, 1987). The identity of the purified glycosphingolipids was confirmed by mass spectrometry (Samuelsson et al., 1990), proton NMR spectroscopy (Koerner et al., 1983) and degradation studies (Stellner et al., 1973; Yang and Hakomori, 1971).
(§4) Mixtures of glycosphingolipids (40 μg/lane) or pure compounds (2 μg/lane) were subsequently separated using thin-layer chromatography (TLC) on glass- or aluminum-backed silica gel 60 HPTLC plates (Merck, Darmstadt, Germany), with chloroform/methanot/water (60:35:8, by volume) as solvent system. Chemical detection was accomplished by anisaldehyde (Waldi, 1962). Helicobacter spp. were subjected to ^35S-labeling (Angstrom et al., 1998) and suspended in PBS (10^8 CFU/ml) with a specific activity of approximately 1 cpm per 100 organisms. Binding of the labeled-bacteria to glycosphingolipids separated by TLC was achieved using a bacterial-overlay technique coupled with autoradiography detection using XAR-5 X-ray films (Eastman Kodak, Rochester, N.Y.) as previously described (Hansson et al., 1985).

[4] = tested on: H. canis CCUG 33835; test: as above; set-up: species or system Helicobacter canis; key: + denotes a significant darkening on the autoradiogram when 2 μg (or 40 μg in the case of the last sample) was applied to TLC plates; − denotes no binding; conditions: 2 μg (40 μg for the glycosphingolipid fraction) on TLC plates
Description: as §2, §3, §4

[5] = tested on: H. felis CCUG 28539; test: as above; set-up: species or system Helicobacter felis; key: + denotes a significant darkening on the autoradiogram when 2 μg (or 40 μg in the case of the last sample) was applied to TLC plates; − denotes no binding; conditions: 2 μg (40 μg for the glycosphingolipid fraction) on TLC plates
Description: as §2, §3, §4

[6] = tested on: H. mustelae 25715; test: as above; set-up: species or system Helicobacter mustelae; key: + denotes a significant darkening on the autoradiogram when 2 μg (or 40 μg in the case of the last sample) was applied to TLC plates; − denotes no binding; conditions: 2 μg (40 μg for the glycosphingolipid fraction) on TLC plates
Description: as §2, §3, §4

[7] = tested on: H. mustelae CCUG 23950 & 23951; test: as above; set-up: species or system Helicobacter mustelae; key: + denotes a significant darkening on the autoradiogram when 2 μg (or 40 μg in the case of the last sample) was applied to TLC plates; − denotes no binding; conditions: 2 μg (40 μg for the glycosphingolipid fraction) on TLC plates
Description: as §2, §3, §4

[8] = tested on: H. pylori CCUG 17874; test: as above; set-up: species or system Helicobacter pylori; key: + denotes a significant darkening on the autoradiogram when 2 μg (or 40 μg in the case of the last sample) was applied to TLC plates; − denotes no binding; conditions: 2 μg (40 μg for the glycosphingolipid fraction) on TLC plates
Description: as §2, §3, §4

[9] = tested on: H. pylori CCUG 17875; test: as above; set-up: species or system Helicobacter pylori; key: + denotes a significant darkening on the autoradiogram when 2 μg (or 40 μg in the case of the last sample) was applied to TLC plates; − denotes no binding; conditions: 2 μg (40 μg for the glycosphingolipid fraction) on TLC plates
Description: as §2, §3, §4

[10] = tested on: H. bilis CCUG 38995; test: as above; set-up: species or system Helicobacter bilis; key: + denotes a significant darkening on the autoradiogram when 2 μg (or 40 μg in the case of the last sample) was applied to TLC plates; − denotes no binding; conditions: 2 μg (40 μg for the glycosphingolipid fraction) on TLC plates
Description: as §2, §3, §4

[11] = tested on: gastric and enterohepatic Helicobacter spp.; test: Binding of Helicobacter spp. to glycosphingolipids (statements for several species)
Description: as §2, §3, §4

[12] = tested on: EPEC strain; conditions: listed in decreasing order of activity; cited from earlier work
[13] = tested on: diarrheagenic E. coli; test: Comparison of binding to dilution series of sialyl-neolactotetraosylceramide variants; set-up: species or system Escherichia coli; conditions: dilution series of glycolipids
Procedure: as §1
To dissect the sialic acid binding preferences of diarrheagenic E. coli, the binding of bacteria to variants of sialyl-neoleactotetraosylceramide was compared. […] The comparison was performed by using dilution series of glycolipids and comparing the disappearence of the bindings when the amounts of glycolipids were reduced.

[14] = both gastric and enterohepatic Helicobacter spp. tested

CC(=O)N[C@H]1[C@H]([C@H](O)[C@H](O)CO)OC(O)(C(=O)O)C[C@@H]1O (stereo partly drawn) [N-acetylneuraminic acid]
Inhibition of binding of an ETEC and an EPEC strain to Caco-2 cells [1]: negative

Galα3Galβ4Glcβ1Cer [No. 7]
Binding of E. coli CCUG 38092 to pure glycosphingolipids after sub-culture ([2]; listed as isoglobotriaosylceramide): Selective loss of binding | Binding of glycosphingolipids to H.hepaticus 33637 [3]: + | Binding of glycosphingolipids to H.canis 33835 [4]: + | Binding of glycosphingolipids to H.felis 28539 [5]: + | Binding of glycosphingolipids to H.mustelae 25715 [6]: + | Binding of glycosphingolipids to H.mustelae 23950 & 23951 [7]: + | Binding of glycosphingolipids to H.pylori 17874 [8]: + | Binding of glycosphingolipids to H.pylori 17875 [9]: + | Binding of glycosphingolipids to H.bilis 38995 [10]: + | Binding of Helicobacter spp. to glycosphingolipid, in words [11, 14]: capable of binding

Galβ3GalNAcβ4(NeuAcα3)Galβ4Glcβ1Cer [No. 29]
Inhibition of binding of an ETEC and an EPEC strain to Caco-2 cells [1]: inhibiting

Galβ3GalNAcβ4Galβ4Glcβ1Cer [No. 11]
Binding of E. coli CCUG 38092 to pure glycosphingolipids after sub-culture [2]: remain | Binding of an EPEC strain to commercial glycolipids [12]: observed to bind | Binding of glycosphingolipids to H.hepaticus 33637 [3]: + | Binding of glycosphingolipids to H.canis 33835 [4]: + | Binding of glycosphingolipids to H.felis 28539 [5]: + | Binding of glycosphingolipids to H.mustelae 25715 [6]: + | Binding of glycosphingolipids to H.mustelae 23950 & 23951 [7]: + | Binding of glycosphingolipids to H.pylori 17874 [8]: + | Binding of glycosphingolipids to H.pylori 17875 [9]: + | Binding of glycosphingolipids to H.bilis 38995 [10]: + | Binding of Helicobacter spp. to glycosphingolipid, in words ([11]; H. felis, H. canis, H. hepaticus and H. bilis): binding was demonstrated

Galβ4Glcβ1Cer [No. 5]
Binding of glycosphingolipids to H.hepaticus 33637 [3]: + | Binding of glycosphingolipids to H.canis 33835 [4]: + | Binding of glycosphingolipids to H.felis 28539 [5]: + | Binding of glycosphingolipids to H.mustelae 25715 [6]: + | Binding of glycosphingolipids to H.mustelae 23950 & 23951 [7]: + | Binding of glycosphingolipids to H.pylori 17874 [8]: + | Binding of glycosphingolipids to H.pylori 17875 [9]: + | Binding of glycosphingolipids to H.bilis 38995 [10]: + | Binding of Helicobacter spp. to glycosphingolipid, in words [11, 14]: capable of binding

NeuAcα3Galβ4GlcNAcβ3Galβ4Glcβ1Cer [No. 31]
Relative binding affinity, order by disappearance of binding in dilution series [13]: finally

NeuGcα3Galβ4GlcNAcβ3Galβ4Glcβ1Cer [No. 33]
Relative binding affinity, order by disappearance of binding in dilution series [13]: highest affinity

lactosylceramide
Binding of an EPEC strain to commercial glycolipids [12]: negative | Inhibition of binding of an ETEC and an EPEC strain to Caco-2 cells [1]: negative
